Test results as given in ChEMBL document CHEMBL1147418, “Rational design and synthesis of selective BACE-1 inhibitors” (Bioorg Med Chem Lett, 2004).
pKi: −log10 of the molar value.

What was measured:
Beta-secretase 1 [1] = target: T1, Beta-secretase 1 (Homo sapiens, UniProt P56817); experiment: Tested for inhibition of Beta-secretase 1 (BACE 1) expressed in insect cell using baculovirus
Cathepsin D = Cathepsin D (Homo sapiens, UniProt P07339); experiment: Compound was tested for inhibition of cathepsin D
Renin = target: T2, Renin (Homo sapiens, UniProt P00797); experiment: Compound was tested for inhibition of human renin
T2 sequence (P00797 whole entry): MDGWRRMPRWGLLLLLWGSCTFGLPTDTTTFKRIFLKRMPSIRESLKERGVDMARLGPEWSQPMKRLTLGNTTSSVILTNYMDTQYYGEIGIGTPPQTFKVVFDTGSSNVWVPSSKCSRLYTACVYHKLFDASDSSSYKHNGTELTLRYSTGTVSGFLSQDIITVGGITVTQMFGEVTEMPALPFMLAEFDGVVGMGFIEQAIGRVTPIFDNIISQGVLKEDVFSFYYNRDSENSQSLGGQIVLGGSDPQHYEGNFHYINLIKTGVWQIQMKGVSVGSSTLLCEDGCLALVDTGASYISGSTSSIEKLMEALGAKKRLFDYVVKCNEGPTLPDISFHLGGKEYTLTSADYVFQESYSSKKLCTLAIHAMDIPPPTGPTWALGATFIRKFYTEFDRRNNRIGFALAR

Beta-secretase 1 [2] = target: T1, Beta-secretase 1; experiment: Compound (>1 mM ) was tested for inhibition of Beta-secretase 1 (BACE 1) expressed in insect cell using baculovirus; Not inhibited

T1 sequence (P56817 whole entry): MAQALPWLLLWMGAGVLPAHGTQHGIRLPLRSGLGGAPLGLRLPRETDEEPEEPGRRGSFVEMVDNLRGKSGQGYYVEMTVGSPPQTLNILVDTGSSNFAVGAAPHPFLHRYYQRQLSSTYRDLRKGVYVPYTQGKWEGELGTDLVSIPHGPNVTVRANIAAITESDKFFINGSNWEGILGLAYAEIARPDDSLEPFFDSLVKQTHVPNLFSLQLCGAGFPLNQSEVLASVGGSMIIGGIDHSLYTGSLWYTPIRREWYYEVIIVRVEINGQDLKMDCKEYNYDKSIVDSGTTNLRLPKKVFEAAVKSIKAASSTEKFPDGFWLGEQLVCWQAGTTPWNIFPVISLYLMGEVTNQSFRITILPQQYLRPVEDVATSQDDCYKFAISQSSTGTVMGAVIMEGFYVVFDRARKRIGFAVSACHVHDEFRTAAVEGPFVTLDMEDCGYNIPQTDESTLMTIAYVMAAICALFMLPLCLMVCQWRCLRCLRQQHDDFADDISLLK
Cathepsin D, sequence (P07339 65-162 limits assumed): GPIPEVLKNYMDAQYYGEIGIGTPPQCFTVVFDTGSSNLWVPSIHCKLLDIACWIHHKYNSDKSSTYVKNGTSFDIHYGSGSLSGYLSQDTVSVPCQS
Cathepsin D, sequence (P07339 169-412 limits assumed): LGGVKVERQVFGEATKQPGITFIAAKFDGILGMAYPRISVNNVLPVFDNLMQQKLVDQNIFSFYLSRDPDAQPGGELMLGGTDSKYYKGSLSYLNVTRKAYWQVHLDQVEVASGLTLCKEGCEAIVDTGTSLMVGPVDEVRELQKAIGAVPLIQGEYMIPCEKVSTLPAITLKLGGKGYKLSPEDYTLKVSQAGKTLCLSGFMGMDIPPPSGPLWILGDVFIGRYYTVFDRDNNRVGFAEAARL

Row | Compound | pKi (Beta-secretase 1 [1]) | pKi (Cathepsin D) | pKi (Renin) | Activity (Beta-secretase 1 [2])
1 | CC(C)CNC(=O)[C@H](CCC(=O)O)C[C@H](O)[C@H](Cc1ccccc1)NC(=O)C[C@H](NC(=O)CC(C)C)C(=O)O | 5.77 | 4.10 | 4.13 | 
2 | CCC[C@H](C[C@H](O)[C@H](Cc1ccccc1)NC(=O)C[C@H](NC(=O)CC(C)C)C(=O)O)C(=O)NCC(C)C | 4.16 | 4.55 | 4.61 | 

Continued, values first:

Row | pKi (Beta-secretase 1 [1]) | pKi (Cathepsin D) | pKi (Renin) | Activity (Beta-secretase 1 [2]) | Compound
3 | 5.57 | 5.66 | 5.72 |  | CC(=O)OCC[C@H](C[C@H](O)[C@H](Cc1ccccc1)NC(=O)C[C@H](NC(=O)CC(C)C)C(=O)O)C(=O)NCC(C)C
4 | 5.72 | 4.90 | 4.96 |  | CC(C)CNC(=O)[C@H](CCO)C[C@H](O)[C@H](Cc1ccccc1)NC(=O)C[C@H](NC(=O)CC(C)C)C(=O)O
5 |  |  |  | No inhibition | CC(C)CC(=O)N[C@H](C(=O)N[C@H](C(=O)N[C@@H](CC(C)C)[C@@H](O)CC(=O)N[C@@H](C)C(=O)N[C@@H](CC(C)C)[C@@H](O)CC(=O)O)C(C)C)C(C)C
